Experiment in all cases: relative viability (nuclei count vs DMSO), 5 days (fraction); higher = more cells survive
Compound in the assay “Quizartinib + Decitabine”: CC(C)(C)c1cc(NC(=O)Nc2ccc(-c3cn4c(n3)sc3cc(OCCN5CCOCC5)ccc34)cc2)no1 [Quizartinib] + Nc1ncn([C@H]2C[C@H](O)[C@@H](CO)O2)c(=O)n1 [Decitabine] (partner 2 µM)
Summed up: (§1)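 Dosing by pin tool came one day after lung cancer cell lines were seeded in 1536-well plates, using either one drug or a fixed anchor-drug dose plus five library-drug doses (not always all listed) in √10 steps. After 5 days, nuclei were counted on 4× images. Relative viability is treated-well nuclei count divided by vehicle-well nuclei count, and values are medians of duplicate plates.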

Compound in the assay “YM155 + Pemetrexed”: COCC[n+]1c2c(n(Cc3cnccn3)c1C)C(=O)c1ccccc1C2=O [YM155] + Nc1nc2[nH]cc(CCc3ccc(C(=O)N[C@@H](CCC(=O)O)C(=O)O)cc3)c2c(=O)[nH]1 [Pemetrexed] (partner 0.2 µM)
Summed up:
as §1

Compound in the assay “Quizartinib + OSI-027”: CC(C)(C)c1cc(NC(=O)Nc2ccc(-c3cn4c(n3)sc3cc(OCCN5CCOCC5)ccc34)cc2)no1 [Quizartinib] + COc1cccc2cc(-c3nc([C@H]4CC[C@H](C(=O)O)CC4)n4ncnc(N)c34)[nH]c12 [OSI-027] (partner 0.5 µM)
Summed up: as §1

Experimental findings from the supplement of paper PMC10307832 are described below.

As to NCI-H1648, the relative viability with Quizartinib + Decitabine (first compound 0.003162 µM) came out at 0.461; with Quizartinib + Decitabine (first compound 0.03162 µM), 0.548; in the assay with Quizartinib + Decitabine (first compound 0.1 µM) it was 0.745; in the assay with YM155 + Pemetrexed (first compound 0.006325 µM), 0.97; with YM155 + Pemetrexed (first compound 0.02 µM), 0.702; with YM155 + Pemetrexed (first compound 0.06325 µM), 0.804. The relative viability in the assay with Quizartinib + OSI-027 (first compound 0.01 µM) was 0.258; with Quizartinib + OSI-027 (first compound 0.03162 µM), 0.253; with Quizartinib + OSI-027 (first compound 0.1 µM), 0.259.
